Data from patent publication US8569259B2, “Adenosine analogs and their use” (Microdose Therapeutx, Inc., priority 2006, dated 2013).
Where two headings read alike, the source gives them in different places.

Assays:
[1] = target: T1, P2Y2 receptor (Homo sapiens, UniProt P41231); experiment: IP1 accumulation assay (kit IP-one HTRF); format: cell-based
T1 construct: host or cells: cells not identified for the IP1 assay
Method: The compounds described herein may be tested for their ability to elicit P2Y2 receptor activity using in vitro IP1 accumulation, intracellular calcium mobilization, mucus production and ciliary beat frequency assays, ex vivo Short Current Circuit and fluid transport assays for P2Y2 and other P2Y receptor activity assays, as described below.
Cells in midlog phase are collected with PBS-EDTA, washed and resuspended in medium without antibiotics at a concentration of 2×10^5 cells/ml. Cells (200 μL or 40.000 cells) are then distributed into a 96 well plate (Cellstar, Greiner, 655083). The plate is incubated overnight at 37° C. in a cell culture incubator. The next morning, the medium is removed and replaced by 50 μL of agonist diluted in the stimulation buffer provided with the kit IP-one (CisBio, 621P1PEB). The plate is incubated for 1 h at 37° C. in a cell culture incubator. 25 μL of the antibody diluted in lysis buffer is then added to each well. 25 μL of the IP1-d2 diluted in lysis buffer is added to each well and the plate is incubated for 1 h. at room temperature. The plate is then read on a Rubystar and dose-response curves are generated by plotting the ligand concentrations versus the DeltaF ratio.
EC50 values for certain compounds were obtained through an IP1 accumulation assay (kit IP-one HTRF), as described above.

[2] = system: male Balb/C mice; experiment: Gastric retention and small intestine transit, 30 min after Tc-sulfur colloid meal; format: in vivo; settings: 30 min after meal, tegaserod 0.1 mg/kg ip, lubiprostone 0.1 mg/kg oral, compound C 50 mg/kg oral; for geometric center (GC) of the small intestine: 1-way ANOVA or Student's t-test, FIG. 3; for stomach retention, percentage of total radioactivity left in the stomach: FIG. 5
Method: Male Balb/C mice were fasted overnight with free access to water. Water was then removed for 30 minutes. Each mouse was subsequently gavaged a liquid meal of 0.5% methylcellulose (weight-to-volume w/v) and 10% corn oil (volume-to-volume v/v) in water containing 5-10 μCi of an non-absorbable Tc-sulfur colloid radioactive marker as well as compound C at doses between 2 and 50 mg/kg (10 mL/kg), or lubiprostone at 100 μg/kg. A group was dosed with tegaserod (100 μg/kg) injected ip just prior to receiving vehicle by oral gavage. Control animals received vehicle only. Animals were euthanized 30 minutes after dosing and their GI tract was excised from the stomach down. The stomach was counted alone. The small intestine was extended and cut into 10 equally sized pieces, labeled 1 to 10 from stomach to caecum. Each piece of the small intestine, and the stomach, were counted for radioactivity. The geometric center (GC) of the small intestine was calculated according to GC=(Σ(i×Ci))/(ΣCi), where i is the label of the segment (from 1 to 10) and Ci is the number of counts. GC is a number between 1 and 10. The closer GC is to 10, the faster the small intestinal transit. Gastric retention was calculated as percent of total dose counted. GC's and gastric retentions were compared between dose and vehicle groups using a Student's t-test. A P-value of less than 0.05 was considered statistically significant, as depicted in FIGS. 3-5.

[3] = system: male Balb/C mice; experiment: Large intestine transit, 2.5 hr after Tc-sulfur colloid meal; format: in vivo; settings: 2.5 hr after meal; for gastric retention (percentage of total radioactivity left in stomach): compound C up to 50 mg/kg oral, lubiprostone 0.1 mg/kg oral, FIG. 6
Method: Male Balb/C mice were fasted overnight with free access to water. Water was then removed for 30 min. Each mouse was subsequently gavaged a liquid meal of 0.5% methylcellulose (weight-to-volume w/v) and 10% corn oil (volume-to-volume v/v) in water containing 5-10 μCi of an non-absorbable Tc-sulfur colloid radioactive marker containing the compound C at doses of 5, 10 and 50 mg/kg (10 mL/kg), or lubiprostone at 100 μg/kg. A group was dosed with tegaserod (100 μg/kg) injected ip just prior to receiving vehicle by oral gavage. Control animals received vehicle only. Animals were kept for 30 minutes in empty cages then given access to food and water at libitum. They were euthanized 2.5 hours after dosing and their GI tract was excised from the stomach down. The stomach and small intestine were counted alone. The large intestine was extended and cut into 3 equally sized pieces, labeled 1 to 3 from caecum to rectum. Each section was counted individually. Feces, labeled 4, were collected, weighed, and counted. The geometric center (GC) of the large intestine/feces portion of the GI tract was calculated according to GC=(Σ(i×Ci))/(ΣCi), where i is the label of the segment (from 1 to 4) and Ci is the number of counts. GC is a number between 1 and 4. The closer GC is to 4, the faster the intestinal transit. Between 7 and 12 mice were used for each dose group. Gastric retention was calculated as percent of total dose counted. Gastric retentions between compound-dosed and vehicle-dosed animals were compared using a one-way ANOVA test and a Dunnett post-test. GC's and feces weights were compared between compound- and vehicle-dosed animals using a similar statistical methodology. In all cases, a P-value of less than 0.05 was considered statistically significant.

[4] = system: male Balb/C mice; experiment: Total gastrointestinal transit, carmine red dye meal, time to first red pellet and feces weight; format: in vivo; settings: oral gavage 5 and 50 mg/kg
Method: Briefly, mice were administered a meal containing a non-absorbable red dye (carmine) and were monitored for 3 hours. Feces were collected and time of expulsion was recorded. Feces were weighed fresh and again after overnight drying. Time to first red-colored feces was used as a measure of total GI transit time. Total weight of wet and dry feces was used as a measure of fluid secretion.
Male Balb/C mice were fasted overnight with free access to water. They were then given access to food and water for 30 minutes. They were finally moved to empty plastic cages with no access to food or water. After 1 hour, each mouse was fed a liquid meal of 0.5% methylcellulose (weight-to-volume w/v) in water containing 3% carmine dye (w/v) as well as doses of the test compound at 5 and 50 mg/kg (10 mL/kg) with a gavage needle. Control animals received vehicle only. Each animal was held in an individual cage for the following 3 hours. The expulsion time of each feces was recorded to the nearest 5 seconds. Each feces was placed in a tared vial and the vial was capped. Fresh feces were weighed and the vials were kept uncapped overnight at 37° C. The feces were then weighed again. Average times to first red-colored feces for vehicle- and compound-dosed animals were compared using a Student's t-test (two-sided, unequal variance). A P-value of 0.05 or less was considered statistically significant. […]

[5] = X = compound falls in class +, read-out: EC50, class + (>1000 nM)
[6] = compound falls in class +++, read-out: EC50, class +++ (<500 nM)

T1 sequence (P41231 whole entry): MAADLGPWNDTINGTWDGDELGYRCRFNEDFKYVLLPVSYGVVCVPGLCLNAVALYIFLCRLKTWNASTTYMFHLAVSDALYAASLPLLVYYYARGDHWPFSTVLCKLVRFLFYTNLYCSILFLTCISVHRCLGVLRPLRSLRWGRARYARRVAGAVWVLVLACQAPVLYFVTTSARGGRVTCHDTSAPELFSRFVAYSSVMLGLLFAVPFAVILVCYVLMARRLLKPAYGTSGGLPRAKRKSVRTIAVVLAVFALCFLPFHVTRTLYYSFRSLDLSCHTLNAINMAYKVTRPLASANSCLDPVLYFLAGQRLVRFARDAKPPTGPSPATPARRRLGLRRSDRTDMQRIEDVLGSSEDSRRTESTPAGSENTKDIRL

Row | SMILES | EC50 [1, 5] [nM] | EC50 [1, 6] [nM] | geometric center (GC) of the small intestine [2] | stomach retention, percentage of total radioactivity left in the stomach [2] | also measured
1 | CCCCC(F)(F)[C@@]1(O)CC[C@H]2[C@@H](CC(=O)[C@@H]2CCCCCCC(=O)O)O1 [lubiprostone] | – | – | No statistical significance was observed | No statistical significance was found | gastric retention (percentage of total radioactivity left in stomach) [3]: significant delay in gastric emptying
2 | [H]/N=C(/NCCCCC)N/N=C/c1c[nH]c2ccc(OC)cc12 [tegaserod] | – | – | No statistical significance was observed | statistically significance for tegaserod versus vehicle using Student's t-test | –
3 | COc1ccc(O[C@@H]2O[C@H](COP(=O)(O)OP(=O)(O)OP(=O)(O)OC[C@H]3O[C@@H](n4cnc5c(=N)n(C)cnc54)[C@H](O)[C@@H]3O)[C@@H](O)[C@H]2O)cc1 [Compound E] | > 1000 | – | – | – | –
4 | CNc1c2ncn([C@@H]3O[C@H](COP(=O)(O)OP(=O)(O)OP(=O)(O)OP(=O)(O)OC[C@H]4O[C@@H](Oc5ccc(OC)cc5)[C@H](O)[C@@H]4O)[C@@H](O)[C@H]3O)c2nc[n+]1C [Compound D] | – | < 500 | – | – | –
5 | COc1ccc(O[C@@H]2O[C@H](COP(=O)(O)OP(=O)(O)OP(=O)(O)OP(=O)(O)OC[C@H]3O[C@@H](n4cnc5c(=N)n(C)cnc54)[C@H](O)[C@@H]3O)[C@@H](O)[C@H]2O)cc1 [Compound C] | – | < 500 | No statistical significance was observed | No statistical significance was found | total weight of feces (wet, dry) and water content produced during 3 hours ([4]; 3 hrs after dosing, FIG. 2): dose-dependent increase in wet, and dry feces, as well as in water content; time to first red-colored feces (total GI transit time) ([4]; vs vehicle, FIG. 1): time to first red pellet decreases with increasing dose; gastric retention (percentage of total radioactivity left in stomach) [3]: virtually no effect on gastric retention; geometric center (GC) of the large intestine and feces ([3]; oral 5, 10 and 50 mg/kg, FIG. 7): calculated large intestine geometric center increases with increasing dose; percentage of total radioactivity found in the feces ([3]; oral 5, 10 and 50 mg/kg, FIG. 8): dose-dependent increase of % total radioactivity starting at 5 mg/kg dose at a percentage equivalent to that obtained with lubiprostone and tegaserod; dose with statistically significant effect on large intestine transit ([3]; oral, P<0.05 vs vehicle): ≥ 10 mg/kg; geometric center (GC) of the large intestine, effect compared with reference drugs ([3]; compound C 5 mg/kg oral): equivalent to that obtained with doses of lubiprostone (0.1 mg/kg) and tegaserod (0.1 mg/kg)
6 | COc1ccc(O[C@@H]2O[C@H](COP(=O)(O)OP(=O)(O)OP(=O)(O)OP(=O)(O)OC[C@H]3O[C@@H](c4c[nH]c(=O)[nH]c4=O)[C@H](O)[C@@H]3O)[C@@H](O)[C@H]2O)cc1 [Compound N] | – | – | – | – | EC50 ([1]; X in this column = compound falls in class ++, read-out: EC50, class ++ (500-1000 nM)): 500 to 1000 nM

Further lines, with some results ahead:

Row | EC50 [1, 5] [nM] | EC50 [1, 6] [nM] | SMILES | geometric center (GC) of the small intestine [2] | stomach retention, percentage of total radioactivity left in the stomach [2] | also measured
7 | > 1000 | – | O=P(O)(O)OP(=O)(O)OP(=O)(O)OC[C@H]1O[C@@H](Oc2cccnc2)[C@H](O)[C@@H]1O [Compound M, 3-Pyridyl-β-D-ribofuranosid-5′-triphosphate] | – | – | –
8 | > 1000 | – | O=P(O)(O)OP(=O)(O)OP(=O)(O)OC[C@H]1O[C@@H](CNc2cccnc2)[C@H](O)[C@@H]1O [Compound K, ((2R,3S,4R,5S)-3,4-Dihydroxy-5-((pyridin-3-ylamino)methyl)tetrahydrofuran-2-yl)methyltriphosphoric acid] | – | – | –
9 | > 1000 | – | COc1ccc(N(C)C[C@@H]2O[C@H](COP(=O)(O)OP(=O)(O)OP(=O)(O)O)[C@@H](O)[C@H]2O)cc1 [Compound J, ((2R,3S,4R)-3,4-dihydroxy-5-(((4-methoxyphenyl)(methyl)amino)methyl)tetrahydrofuran-2-yl)methyltriphosphoric acid] | – | – | –
10 | – | < 500 | Cn1cnc2c(ncn2[C@@H]2O[C@H](COP(=O)(O)OP(=O)(O)OP(=O)(O)O)[C@@H](O)[C@H]2O)c1=N [Compound P, 1-Methyl-Adenosine-5′-triphosphate] | – | – | –
